Assay results from patent US20240207211A1, “COMPOSITION FOR PROMOTING BONE FORMATION OR TREATING BONE DISEASE BY ACTING ON OSTEOBLAST MITOCHONDRIA” (SEOUL NATIONAL UNIVERSITY R&DB FOUNDATION, priority 2021, published 2024).

Tests used:
Type in all cases: cell-based, mouse
osteoblasts = experiment: Alkaline phosphatase (ALP) staining of differentiation-induced osteoblasts; conditions: 5 days differentiation, siRNA 30 nM, plasmid 1 μg/mL, bongkrekic acid 40 μM, versus respective control
Procedure: (§1) The osteoblasts extracted in Example 1 were transfected with 30 nM of siOpa1, siFis1, and 1 μg/mL of pCMV-Fis1 plasmids, respectively, in substantially the same manner as in Example 2-1, and separate osteoblasts were treated with 40 μM bongkrekic acid, and additionally, the osteoblasts extracted in Example 1 were transfected with 30 nM siBax, which is an siRNA of Bax (Bcl-2-associated X), and 1 μg/mL pCMV-Bax plasmid (Korea Human Gene Bank, ID: mMU001857), respectively, and differentiation of the osteoblasts was induced for 5 days in a medium consisting of alpha MEM (Minimum Essential Media, Hyclone) supplemented with 10% fetal bovine serum (Gibco) and 100 U/mL of penicillin-streptomycin (Gibco) of Example 2-1. As a control for the siRNA, osteoblasts were prepared by transfecting the control siRNA of Example 2-1 in substantially the same manner as the siRNA; as a control for the plasmid, osteoblasts were prepared by transfecting the pCMV-SPORT6 empty vector plasmid into which no gene was inserted in substantially the same manner as the pCMV-Fis1 plasmid; and as a control for the bongkrekic acid, osteoblasts treated with 0.01M Tris solution were prepared.
To confirm the osteogenic activity of the osteoblasts differentiation-induced in Example 3-1, staining of alkaline phosphatase (ALP), an osteogenic marker, was performed and observed. Specifically, 1 mg of Naphthol AS-MX phosphate (Sigma) was dissolved in 100 μL of N,N-dimethylformamide (Sigma), then 2 mL of 0.1% Fast blue BB salt (Sigma) solution was added and ALP staining was performed at 37° C. for 30 minutes. Osteogenic activity was confirmed by the intensity of staining, and it was evaluated that the darker the staining, the higher the expression of ALP.

osteoblast mitochondria = experiment: Osteoblast fluorescence imaging of mitochondrial morphology (fission, donut-shaped mitochondria); conditions: osteoblasts, 5 days differentiation, siRNA 30 nM, plasmid 1 μg/mL, bongkrekic acid 40 μM; for formation of donut-shaped mitochondria (confocal images, FIGS. 1A to 1C) / mitochondrial fission (confocal images, FIGS. 1A to 1C): versus control; for mitochondrial fission (quantitative analysis, Zeiss Zen 3.1, FIGS. 1D and 1E) / number of donut-shaped mitochondria (quantitative analysis, FIGS. 1D and 1E): versus respective control
Procedure: To confirm changes in the morphology of osteoblast mitochondria, transgenic mice were prepared to express green fluorescent protein (GFP) specifically in the mitochondrial matrix. Specifically, lgs1^CKI-mitoGFP/CKI-mitoGFP knock-in C57BL/6 female mice were provided by Jeremy Nathans (Johns Hopkins University School of Medicine, MD), Col1a1-Cre male mice were provided by the Korea Research Institute of Bioscience and Biotechnology, and Col1a1-Cre was prepared to be expressed in these mice using the 2.3 kb murine Col1a1 promoter. By mating the prepared C57BL/6 female transgenic mouse with the Col1a1-Cre male mouse, newborn transgenic mice (Col1a1-Cre; Igs1^CKI-mito-GFP/+) that conditionally express GFP only in the mitochondria of osteoblasts were prepared. All animal studies were approved by the Seoul National University Institutional Animal Care and Use Committees.
The skull cells of the prepared transgenic mice that express GFP conditionally only in the mitochondria were treated with 0.25% trypsin (Gibco) for 10 minutes, incubated in 2 mg/mL type 2 collagenase (Worthington) for 30 minutes, and in fresh type 2 collagenase for another 60 minutes. The cells separated from the bone tissue were collected by centrifugation at 1300 rpm for 3 minutes, and the cells were placed on serum and centrifuged to remove debris. To separate living osteoblasts that express GFP in mitochondria, they were stained with 7AAD (Bio-Legend) for 10 minutes (only dead cells were stained) and a flow cytometry technique (Fluorescence-activated cell sorting, FACS) was used.
The osteoblasts extracted in Example 1 were induced to be differentiated in a medium composed of alpha MEM (Minimum Essential Media, Hyclone) supplemented with 10% fetal bovine serum (Gibco) and 100 U/mL penicillin-streptomycin (Gibco) for 5 days. Specifically, the differentiation medium is composed of alpha MEM with 50 μg/mL ascorbic acid (Amreasco), 5 mM beta-glycerophosphate (Sigma), 10% fetal bovine serum (Gibco), and 100 U/mL penicillin-streptomycin (Gibco). Osteoblast differentiation was induced for 5 days.
Short interfering RNA (siRNA) that inhibits the expression of the Opa1 (dynamin-like 120 kDa protein) gene, which induces mitochondrial fusion, and the Fis1 (Mitochondrial fission 1 protein) gene, which induces mitochondrial fission (siOpa1, siFis1, respectively) was transfected into 300,000 osteoblasts per 1 mL at 30 nM each at the same time as differentiation induction using Lipofectamine RNAiMAX Reagent (Invitrogen), and to increase mitochondrial fission, the pCMV-Fis1 plasmid (Korea Human Gene Bank) was transfected into 300,000 osteoblasts per mL at 1 μg/mL at the same time as differentiation induction using TransIT®-LT1 Transfection Reagent (Mirus) to overexpress the Fis1 gene. In addition, the osteoblasts prepared above were treated simultaneously with differentiation with Tris solution-based bongkrekic acid (Sigma, B6179, USA) at a concentration of 40 μM. As a control for the siRNA, osteoblasts were prepared by transfecting the control siRNA in substantially the same manner as the siRNA; as a control for the plasmid, osteoblasts were prepared by transfecting the pCMV-SPORT6 empty vector plasmid into which no gene was inserted in substantially the same manner as the pCMV-Fis1 plasmid; and as a control for the bongkrekic acid, osteoblasts treated with 0.01M Tris solution were prepared. The siRNAs were purchased from Bioneer, Korea and transfected using Lipofectamine RNAimax (Invitrogen, USA) according to the manufacturer's instructions, and specific information on the siRNAs is shown in Table 1 below.
The pCMV-Fis1 plasmid containing full-length mouse Fis1 cDNA (ID: mMU002771) was purchased from the Korea Human Gene Bank, and was transfected into osteoblasts using TransIT-LT1 transfection reagent (Mirus Bio, USA) according to the manufacturer's instructions. […]

Alp1 = experiment: qRT-PCR of osteogenic marker Alp1 in osteoblasts; conditions: 5 days differentiation, siRNA 30 nM, plasmid 1 μg/mL, bongkrekic acid 40 μM, normalized to 18S rRNA, versus respective control
Procedure: as §1
(§2) qRT-PCR was performed to evaluate the gene expression level of the osteoblasts that underwent ALP staining in Example 3-2. Total RNA was extracted from the cells using QIAzol Lysis Reagent (Qiagen, Germany) and RNeasy Mini Kit (Qiagen, Germany), and cDNA was prepared using PrimeScript RT Reagent Kit (Takara, Japan) according to the manufacturer's instructions. Quantitative RT-PCR was performed using TB Green Premix Ex Taq II (Takara, Japan) and StepOnePlus Real-Time PCR system (Applied Biosystems, USA). Relative gene expression was determined using standard 2(−ΔΔCt) calculations with normalization to 18S rRNA, and information on the primers used is specifically shown in Table 3 below.

Ibsp = experiment: qRT-PCR of osteogenic marker Ibsp in osteoblasts; conditions: 5 days differentiation, siRNA 30 nM, plasmid 1 μg/mL, bongkrekic acid 40 μM, normalized to 18S rRNA, versus respective control
Procedure: as §1, §2

| Molecule | degree of ALP staining (osteogenic activity) (osteoblasts) | formation of donut-shaped mitochondria (confocal images, FIGS. 1A to 1C) (osteoblast mitochondria) | mitochondrial fission (confocal images, FIGS. 1A to 1C) (osteoblast mitochondria) | mitochondrial fission (quantitative analysis, Zeiss Zen 3.1, FIGS. 1D and 1E) (osteoblast mitochondria) | number of donut-shaped mitochondria (quantitative analysis, FIGS. 1D and 1E) (osteoblast mitochondria) | expression of Alp1 (qRT-PCR) (Alp1) | expression of Ibsp (qRT-PCR) (Ibsp) |
| --- | --- | --- | --- | --- | --- | --- | --- |
| siBax: siRNA of Bax (Bcl-2-associated X); Bioneer ID 12028-1, SEQ ID NO 5 and 6 (chain 1 GCUGCAGAGGAUGAUUGCUTT; chain 2 AGCAAUCAUCCUCUGCAGCTT; chemistry not given here) | weaker compared to the respective controls | – | – | – | – | – | – |
| CO[C@H](C/C=C\C=C\CC/C=C/C[C@H](C)/C=C/C(=C\C(=O)O)CC(=O)O)/C(C)=C\C=C(/C)C(=O)O [bongkrekic acid] | stronger compared to the respective controls | increased compared to the control | increased compared to the control | significantly increased | significantly increased | significantly increased | significantly increased |
| siFis1: siRNA inhibiting expression of the Fis1 gene; Bioneer ID 66437-1, SEQ ID NO 3 and 4 (chain 1 CUGAUUGAUAAGGCCAUGAUU; chain 2 UCAUGGCCUUAUCAAUCAGUU; chemistry not given here) | weaker compared to the respective controls | significantly reduced compared to the control | significantly reduced compared to the control | significantly reduced | significantly reduced | significantly decreased | significantly decreased |
| siOpa1: siRNA inhibiting expression of the Opa1 gene; Bioneer ID 74143-1, SEQ ID NO 1 and 2 (chain 1 GUGUUCACAACGAAACCAAUU; chain 2 UUGGUUUCGUUGUGAACACUU; chemistry not given here) | stronger compared to the respective controls | increased compared to the control | increased compared to the control | significantly increased | significantly increased | significantly increased | significantly increased |
